Measurements as given in patent US12662491B2 (Redona Therapeutics, Inc., priority 2020, dated 2026).

Target: T1, Zcchc11 enzyme (Homo sapiens, UniProt Q5TAX3)
T1 construct: made in house; host or cells: HEK293 cells (Zcchc11); E. coli Rosetta II (LIN28A)
T1 sequence (Q5TAX3 212-1420): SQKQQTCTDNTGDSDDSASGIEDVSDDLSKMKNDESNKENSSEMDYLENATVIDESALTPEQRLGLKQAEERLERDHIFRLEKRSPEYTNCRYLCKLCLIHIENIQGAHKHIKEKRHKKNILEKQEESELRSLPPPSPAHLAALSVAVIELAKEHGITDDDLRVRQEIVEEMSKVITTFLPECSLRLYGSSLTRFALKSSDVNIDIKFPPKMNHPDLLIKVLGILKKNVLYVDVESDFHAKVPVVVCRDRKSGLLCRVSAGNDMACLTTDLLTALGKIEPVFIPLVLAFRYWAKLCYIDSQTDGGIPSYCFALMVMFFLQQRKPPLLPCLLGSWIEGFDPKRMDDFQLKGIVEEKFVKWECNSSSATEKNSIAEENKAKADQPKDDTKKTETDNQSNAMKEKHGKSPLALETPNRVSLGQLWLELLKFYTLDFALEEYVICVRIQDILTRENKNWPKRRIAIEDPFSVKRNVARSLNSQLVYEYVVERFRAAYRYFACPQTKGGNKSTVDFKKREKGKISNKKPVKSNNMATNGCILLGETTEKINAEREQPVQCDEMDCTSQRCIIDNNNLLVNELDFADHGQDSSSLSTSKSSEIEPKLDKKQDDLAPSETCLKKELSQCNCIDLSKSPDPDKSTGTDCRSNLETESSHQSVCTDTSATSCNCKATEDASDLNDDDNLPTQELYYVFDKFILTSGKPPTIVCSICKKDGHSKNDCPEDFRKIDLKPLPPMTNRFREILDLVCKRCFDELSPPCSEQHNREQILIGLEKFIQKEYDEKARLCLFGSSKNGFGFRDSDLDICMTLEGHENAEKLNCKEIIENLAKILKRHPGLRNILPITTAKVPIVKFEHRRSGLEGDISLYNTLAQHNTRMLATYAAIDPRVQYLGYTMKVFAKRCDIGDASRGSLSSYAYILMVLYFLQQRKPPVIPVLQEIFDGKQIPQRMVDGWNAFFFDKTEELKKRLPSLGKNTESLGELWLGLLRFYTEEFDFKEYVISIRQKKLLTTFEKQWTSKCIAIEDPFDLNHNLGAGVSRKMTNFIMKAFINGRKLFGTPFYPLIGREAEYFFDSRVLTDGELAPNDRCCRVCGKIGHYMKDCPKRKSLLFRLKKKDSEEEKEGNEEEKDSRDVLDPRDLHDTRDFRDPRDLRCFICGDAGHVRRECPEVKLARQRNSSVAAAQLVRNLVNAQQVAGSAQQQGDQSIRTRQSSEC
Assay: TUTase assay (Zcchc11 assay, Lin28a-dependent polyuridylation of pre-let-7)
Assay type: biochemical
Conditions: LIN28A 10 nM, Zcchc11 0.2 nM, 5′-fluorescein pre-let-7 miRNA 2 nM, UTP 5 uM, room temperature, 30 minutes pre-incubation; read-out: Potency Lin28a-dep Z11 IC50
Procedure, shortened: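 Readout: time-dependent quench of 5′-fluorescein pre-let-7 (2 nM) as 3′-rhodamine A20 probe anneals to poly(U) tails. Enzyme 0.2 nM Zcchc11 (res. 212-1420), LIN28A 10 nM, UTP 5 uM; pH 7.3 HEPES, 150 mM KCl, 5 mM MgCl2, RT. 4-parameter IC50; 100% = DMSO, 0% = no UTP.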

SMILES	IC50 [nM]
O=C(O)c1cn(-c2ccc3c(c2F)CCN3)c2cc(N3CCC[C@@H]3COc3ccccn3)c(F)cc2c1=O [Example 32, (R)-6-fluoro-1-(4-fluoroindolin-5-yl)-4-oxo-7-(2-((pyridin-2-yloxy)methyl)pyrrolidin-1-yl)-1,4-dihydroquinoline-3-carboxylic acid]	≤ 1000
O=C(O)c1cn(-c2cnc(O)cn2)c2cc(N3CCC[C@@H]3COc3ccccn3)c(Cl)cc2c1=O [Example 33, 6-chloro-1-(5-hydroxypyrazin-2-yl)-4-oxo-7-[(2R)-2-[(pyridin-2-yloxy)methyl]pyrrolidin-1-yl]-1,4-dihydroquinoline-3-carboxylic acid]	≤ 1000
O=C(O)c1cn(C2CN(CCO)C2)c2cc(N3CCC[C@@H]3COc3ncccc3Cl)c(Cl)cc2c1=O [Example 34, 6-Chloro-7-[(2R)-2-{[(3-chloropyridin-2-yl)oxy]methyl}pyrrolidin-1-yl]-1-[1-(2-hydroxyethyl)azetidin-3-yl]-4-oxo-1,4-dihydroquinoline-3-carboxylic acid]	1000 to 10000
Cc1cccnc1OC[C@H]1CCCN1c1cc2c(cc1C#N)c(=O)c(C(=O)O)cn2C1(C)CC1 [Example 35, 6-Cyano-1-(1-methylcyclopropyl)-7-[(2R)-2-{[(3-methylpyridin-2-yl)oxy]methyl}pyrrolidin-1-yl]-4-oxo-1,4-dihydroquinoline-3-carboxylic acid]	≤ 1000
CC(=O)N1CC(n2cc(C(=O)O)c(=O)c3cc(Cl)c(N4CCC[C@@H]4COc4ncccc4C)cc32)C1 [Example 36, 1-(1-Acetylazetidin-3-yl)-6-chloro-7-[(2R)-2-{[(3-methylpyridin-2-yl)oxy]methyl}pyrrolidin-1-yl]-4-oxo-1,4-dihydroquinoline-3-carboxylic acid]	1000 to 10000
COCCN1CC(C)(n2cc(C(=O)O)c(=O)c3cc(Cl)c(N4CCC[C@@H]4COc4ncccc4Cl)cc32)C1 [Example 37, 6-Chloro-7-[(2R)-2-{[(3-chloropyridin-2-yl)oxy]methyl}pyrrolidin-1-yl]-1-[1-(2-methoxyethyl)-3-methylazetidin-3-yl]-4-oxo-1,4-dihydroquinoline-3-carboxylic acid]	1000 to 10000
COCCN1CCC(n2cc(C(=O)O)c(=O)c3cc(Cl)c(N4CCC[C@@H]4COc4ncccc4Cl)cc32)C1 (stereo partly drawn) [Example 38, 6-Chloro-7-[(2R)-2-{[(3-chloropyridin-2-yl)oxy]methyl}-pyrrolidin-1-yl]-1-[1-(2-methoxyethyl)pyrrolidin-3-yl]-4-oxo-1,4-dihydroquinoline-3-carboxylic acid]	1000 to 10000
CN(C)CCN1CCC(n2cc(C(=O)O)c(=O)c3cc(Cl)c(N4CCC[C@@H]4COc4ncccc4Cl)cc32)C1 (stereo partly drawn) [Example 39, 6-chloro-7-[(2R)-2-{[(3-chloropyridin-2-yl)oxy]methyl}pyrrolidin-1-yl]-1-{1-[2-(dimethylamino)ethyl]pyrrolidin-3-yl}-4-oxo-1,4-dihydroquinoline-3-carboxylic acid]	10000 to 50000
Nc1ccc(-n2cc(C(=O)O)c(=O)c3cc(Cl)c(N4CCC[C@@H]4COc4ncccc4Cl)cc32)cn1 [Example 40, (R)-1-(6-aminopyridin-3-yl)-6-chloro-7-(2-(((3-chloropyridin-2-yl)oxy)methyl)pyrrolidin-1-yl)-4-oxo-1,4-dihydroquinoline-3-carboxylic acid]	≤ 1000
O=C(O)c1cn(-c2cnccn2)c2cc(N3C[C@@H](F)C[C@@H]3COc3ncccc3Cl)c(Cl)cc2c1=O [Example 41, 6-chloro-7-[(2R,4S)-2-{[(3-chloropyridin-2-yl)oxy]methyl}-4-fluoropyrrolidin-1-yl]-4-oxo-1-(pyrazin-2-yl)-1,4-dihydroquinoline-3-carboxylic acid]	≤ 1000
CN(C)C1CN(c2ccc(-n3cc(C(=O)O)c(=O)c4cc(C#N)c(N5C6CCC5(COc5ncccc5F)CC6)cc43)cn2)C1 [Example 42, 6-cyano-1-(6-(3-(dimethylamino)azetidin-1-yl)pyridin-3-yl)-7-(1-(((3-fluoropyridin-2-yl)oxy)methyl)-7-azabicyclo[2.2.1]heptan-7-yl)-4-oxo-1,4-dihydroquinoline-3-carboxylic acid]	≤ 1000
